Measurements reported in US20210353585A1, “METHODS AND COMPOSITIONS FOR TREATING LAMINOPATHIES AFFECTING SKELETAL OR CARDIAC MUSCLE” (CORNELL UNIVERSITY, priority 2018, published 2021).

Experiments:
Lmna KO myofibers [1] = assay: Cell viability MTT assay, Lmna KO; format: cell-based, mouse; details: phleomycin alone or in combination with NU7441 and/or KU55933
Method: (§1) Pharmacological treatments. For preliminary experiments, myoblasts were differentiated using the standard protocol and treated with pharmacological treatments starting at day 5 of differentiation. For chromatin protrusion studies, paclitaxel was administered to differentiated myotubes in two 24 hours bursts at day 4 and day 6-post differentiation with a 24 hour recovery in between. Myotubes were then fixed in 4% PFA at day 7 and stained with anti-lamin B and DAPI in order to quantify the percentage of myonuclei with chromatin protrusions. For long term studies using the cGAS reporter, myotubes were treated with 10 nM of paclitaxel starting at day 5 and then media was refreshed every day. […] For DNA damage induction and inhibitor experiments, cells were treated with 20 μg/ml of phleomycin for a two-hour pulse on Day 3, 4, and 5 of differentiation. Concurrently, cells were treated with NU7441 (2 μM), KU55933 (2 μM) starting at day 2 of differentiation through day 10 of differentiation. For induction of DN-KASH and DN-KASHext, cells were treated with 1 μM doxycycline.
(§2) MTT assay. Myoblasts, seeded in a 96-well plate and differentiated as previously described for 0, 5, or 10 days, were assayed for cell viability according to the manufacturer's instructions (Promega, CellTiter 96 Non-Radioactive Cell Proliferation Assay). Fresh differentiation media was added two hours prior to the addition of 15 μL MTT 3-(4,5-dimethylthiazol-2-yl)-2,5-diphenyltetrazolium bromide dye. After incubation for 3 hours in MTT dye, 100 uL of Stop Solution was added to solubilize the formazan product (appears purple). Following overnight incubation at 37° C. and 5% CO2, the absorbance of each well (measured at 590 nm) was analyzed using a microplate reader.

Lmna WT myofibers [2] = assay: Cell viability MTT assay, Lmna WT; format: cell-based, mouse; details: wild-type myofibers; phleomycin 20 μg/ml pulses combined with NU7441 (2 μM) and/or KU55933 (2 μM); comparable to untreated Lmna KO
Method: as §1, §2

Lmna WT myofibers [3] = assay: DNA damage by γH2AX foci per nucleus, Lmna WT; format: cell-based, mouse; details: for DNA damage (γH2AX foci per nucleus): Lmna WT cells, phleomycin with DNA-PK+ATM inhibition vs phleomycin alone; for DNA damage (γH2AX foci): wild-type myofibers, phleomycin 20 μg/ml pulses combined with NU7441 (2 μM) and/or KU55933 (2 μM), comparable to untreated Lmna KO
Method: as §1
Immunofluorescence staining of mouse cells and tissues. Cells were fixed in pre-warmed 4% PFA at the appropriate time point(s) and washed with PBS. Cells were blocked and permeabilized with a solution of 3% BSA, 0.1% Triton-X 100 and 0.1% Tween (Sigma) for 1 hour at room temperature. Cells were stained with primary antibodies diluted in blocking solution according to Table 4 at 4° C. overnight. Samples were washed with PBS and incubated for 1 hour at room temperature with 1:250 dilution of AlexaFluor antibodies (Invitrogen) and 1:1000 DAPI (Sigma). Single muscle fibers were stained using the same procedure in Eppendorf tube baskets with an increase in blocking solution Triton-X concentration to 0.25%.
Image analysis. Image sequences were analyzed using ZEN (Zeiss), ImageJ, or MATLAB (Mathworks) using only linear adjustments uniformly applied to the entire image region. Region of interest intensities were extracted using ZEN or ImageJ. To quantify cleaved caspase-3 (i.e. active) area and myofiber health, maximum intensity protections were generated, which were then blinded to the observer. Cleaved caspase-3 area was calculated by thresholding of the caspase-3 and myosin heavy chain fluorescent signal and expressing the cleaved caspase-3 signal relative to the myosin heavy chain signal. Myofiber contractions were scored based on a minimum of 6 random fields of view per replicate using a blinded analysis according to the scales provided in FIGS. 4A-4B. […] Protrusions lengths were both counted and measured by the presence of DAPI signal beyond the lamin B rim of the nucleus. Aspect ratio was quantified based on a thresholded lamin B rim to avoid the confounding factor of the DNA protrusions outside the body of the nucleus. Nuclear rupture was detected by an increase of the cytoplasmic NLS-GFP signal, or the localization of cGAS-mCherry to the nucleus. For better visualization of NLS-GFP cells many of the fluorescent single color image sequences were inverted. […] DNA damage was determined by counting H2AX foci and then binned based on foci number. If damage was so severe that individual foci could not be counted, these nuclei were placed in the >25 foci category. For Hsp90 quantification, average nuclear Hsp90 fluorescence intensity was determined from a single mid-nucleus z-plane image and normalized to the cytoplasmic intensity at two points immediately adjacent to the nucleus.

chick cardiac tissue = details: Cho et al. 2019; cited from earlier work
Lmna KO myofibers [4] = assay: Nuclear envelope rupture, cGAS-mCherry reporter foci; format: cell-based, mouse; details: paclitaxel 10 nM starting day 5, vs DMSO
Text: Each of the mutant myoblast lines were stably modified with lentiviral vectors to express the nuclear rupture reporter NLS-GFP (pCDH-CMV-NLS-copGFP-EF1-blastiS) and cGAS-mCherry (pCDH-CMV-eGAs^E225A/D227A-mCherry2-EF1-blastiS). cGAS is a cytosolic DNA binding protein; a cGAS mutant (E225A/D227A) with abolished enzyme activity and interferon production, but that still binds DNA (Civril et al., “Structural Mechanism of Cytosolic DNA Sensing by cGAS,” Nature 498:332-337 (2013), which is hereby incorporated by reference in its entirety) and serves as a nuclear envelope rupture reporter (Denais et al., “Nuclear Envelope Rupture and Repair During Cancer Cell Migration,” Science 352:353-358 (2016), which is hereby incorporated by reference in its entirety) was used.
Extended imaging using incubator microscope. […] Resulting images were analyzed using the Incucyte software, which performs fluorescence background subtraction using a top hat method and then subsequent thresholding. cGAS-mCherry cells were thresholded and then analyzed for increase in fluorescent foci over time to track the rate of increase in nuclear envelope rupture or damage. […]

Lmna KO myofibers [5] = assay: Quantification of myonuclei with chromatin protrusions; format: cell-based, mouse; details: paclitaxel 50 nM starting day 4, read day 7, vs DMSO
Method: Pharmacological treatments. For preliminary experiments, myoblasts were differentiated using the standard protocol and treated with pharmacological treatments starting at day 5 of differentiation. For chromatin protrusion studies, paclitaxel was administered to differentiated myotubes in two 24 hours bursts at day 4 and day 6-post differentiation with a 24 hour recovery in between. Myotubes were then fixed in 4% PFA at day 7 and stained with anti-lamin B and DAPI in order to quantify the percentage of myonuclei with chromatin protrusions. For long term studies using the cGAS reporter, myotubes were treated with 10 nM of paclitaxel starting at day 5 and then media was refreshed every day. […]
Image analysis. Image sequences were analyzed using ZEN (Zeiss), ImageJ, or MATLAB (Mathworks) using only linear adjustments uniformly applied to the entire image region. […] To quantify cleaved caspase-3 (i.e. active) area and myofiber health, maximum intensity protections were generated, which were then blinded to the observer. Cleaved caspase-3 area was calculated by thresholding of the caspase-3 and myosin heavy chain fluorescent signal and expressing the cleaved caspase-3 signal relative to the myosin heavy chain signal. Myofiber contractions were scored based on a minimum of 6 random fields of view per replicate using a blinded analysis according to the scales provided in FIGS. 4A-4B. […]

Lmna KO myofibers [6] = assay: Microharpoon assay of nuclear deformation; format: cell-based, mouse; details: Lmna KO myotubes, 50 nM paclitaxel for 24 hours vs DMSO
Method: For the microharpoon studies, myoblasts were seeded in 35 mm glass bottom dishes and differentiated as previously described, except without the addition of a Matrigel top coat to allow microharpoon access. A Sutter P-97 micropipette puller was used to create microharpoons from borosilicate glass rods (Sutter; OD: 1.0 mm, ID: 0.78, 10 cm length) with tip diameters of ≈1 μm. Day 4 myotubes (Lmna KO and wild-type) were treated for 24 hours with either 50 nM Paclitaxel or the corresponding 0.1% DMSO. The following day, the microharpoon assay was performed as described in Fedorchak et al., “Cell Microharpooning to Study Nucleo-Cytoskeletal Coupling,” Methods Mol. Biol. 1411:241-254 (2016), which is hereby incorproated by reference in its entirety, with slight modifications to the pull parameters to accommodate myotubes. The microharpoon was inserted ≈5-7 μm from the edge of the nucleus and pulled 15 μm at a rate of 1 μm/s. Pull direction was always orthogonal to the long axis of the myofiber. Images were acquired at 40× (+1.6×) every 5 seconds. Nuclear strain and centroid displacement were calculated using a custom-written MATLAB program. […]

Lmna H222P mice = details: Macquart et al. 2018; cited from earlier work

Row | Compound | myofiber viability (MTT) (Lmna KO myofibers [1]) | myofiber viability (MTT) (Lmna WT myofibers [2]) | DNA damage (γH2AX foci per nucleus) (Lmna WT myofibers [3]) | DNA damage (γH2AX foci) (Lmna WT myofibers [3]) | nuclear envelope rupture (chick cardiac tissue) | incidence of nuclear envelope rupture (cGAS-mCherry foci) (Lmna KO myofibers [4]) | percentage of nuclei with chromatin protrusions (Lmna KO myofibers [5]) | nuclear deformation in response to cytoplasmic force application (nuclear strain) (Lmna KO myofibers [6]) | cardiac conduction defects (Lmna H222P mice)
1 | O=c1cc(-c2cccc3c2Sc2ccccc2S3)oc(N2CCOCC2)c1 [KU55933] | did not further reduce viability | loss of viability | significant increase in DNA damage | accumulation of DNA damage | – | – | – | – | –
2 | O=c1cc(N2CCOCC2)oc2c(-c3cccc4c3sc3ccccc34)cccc12 [NU7441] | did not further reduce viability | loss of viability | significant increase in DNA damage | accumulation of DNA damage | – | – | – | – | –
3 | Cc1ccc2c(c1)C(=O)C1(O)CCN(c3ccccc3)C1=N2 (stereo not shown) [blebbistatin] | – | – | – | – | rescued | – | – | – | –
4 | CC(=O)O[C@H]1C(=O)[C@@]2(C)[C@H]([C@H](OC(=O)c3ccccc3)[C@]3(O)C[C@H](OC(=O)[C@H](O)[C@@H](NC(=O)c4ccccc4)c4ccccc4)C(C)=C1C3(C)C)[C@]1(OC(C)=O)CO[C@@H]1C[C@@H]2O [paclitaxel] | – | – | – | – | – | significantly reduced | significantly reduced the percentage of nuclei with chromatin protrusions | significantly reduced nuclear deformation | improve cardiac conduction defects
5 | phleomycin | did not further reduce viability | loss of viability | – | accumulation of DNA damage | – | – | – | – | –
